In PubChem BioAssay (NCI):
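These data come from cells grown in 96-well plates and exposed to compound for 48 hours at five concentrations. TGI marks complete inhibition of growth.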

What was measured:
Assay in all cases: inhibition of tumour cell growth, NCI panel, 48 h
LXFL 529 NSCLC = test system: LXFL 529 NSCLC
SNB-78 CNS = test system: SNB-78 CNS
XF 498 CNS = test system: XF 498 CNS
DMS 273 small cell lung = test system: DMS 273 small cell lung
HOP-18 NSCLC = test system: HOP-18 NSCLC
RXF-631 renal = test system: RXF-631 renal
M19-MEL melanoma = test system: M19-MEL melanoma
DMS 114 small cell lung = test system: DMS 114 small cell lung
KM20L2 colon = test system: KM20L2 colon
DLD-1 colon = test system: DLD-1 colon
HT29 colon = test system: HT29 colon

Measured: TGI

COC(=O)C1=CO[C@@H](C)[C@@H]2Cn3ccc4c5ccccc5nc-4c3C[C@H]12
> 100 µM: LXFL 529 NSCLC | SNB-78 CNS | XF 498 CNS | DMS 273 small cell lung | HOP-18 NSCLC | RXF-631 renal | M19-MEL melanoma | DMS 114 small cell lung | KM20L2 colon | DLD-1 colon | HT29 colon
